What was measured:
Type in all cases: cell-based, human
caveolin-1 = test: Western blot of caveolin-1 in siRNA-transfected monocytes; details: 48 hrs after transfection, HVJ-E vector
Protocol: Lysates were generated with RIPA lysis buffer (1% NP-40, 0.5% sodium deoxycholate, 0.1% SDS, 5 mM EDTA, 10 mM Tris-HCl (pH 7.4), 0.15 M NaCl, 1 mM PMSF, 0.5 mM NaF, 10 μg/ml aprotinin and 0.02 mM Na3VO4) from 1.0×10^7 of THP-1 cells incubated with recombinant soluble CD26 (rsCD26) or 1.0×10^7 of TT-loaded monocytes stimulated with rsCD26-coated beads. Then, lysates were clarified by 15,000×g for 30 min. Immunoprecipitates (IPs) were performed by incubating lysates with 2 μg of control immunoglobulins (Ig) and protein G-sepharose beads (Amersham Pharmacia) at 4° C. for 1 h. After centrifugation, supernatants were incubated with 2 μg of specific Ig at 4° C. for 2 h, followed by addition of protein G-sepharose beads for an overnight incubation. After washing four times with RIPA lysis buffer, beads were submitted to SDS-PAGE and Western blot analysis.
To design target-specific siRNA duplexes, the present inventors selected sequences of the type AA(N19) (N, any nucleotide) from the open reading frame of human caveolin-1 (accession number=NM 001753) (Elbashir, et al., 2001). Moreover, the inventors added the sequences to the 2-nucleotide 3′ overhangs of 2′-deoxythymidine (dTdT), in order to generate a symmetric duplex with respect to the sequence composition of the sense and antisense 3′ overhangs. These symmetric 3′ overhangs were reported to help to ensure that the siRNA were formed with approximately equal ratios of sense and antisense target RNA-cleaving siRNA (Elbashir, et al., 2001). Therefore, the present inventors selected two target sequences from 81 to 101 (ss1) and […] (ss2) downstream of the start codon of caveolin-1 mRNA (sense1 siRNA (ss1-siRNA): 5′[…] CAGACdTdT (SEQ ID NO: 6), and sense2 siRNA (ss2-siRNA): 5′ AAGGAGA […] dTdT (SEQ ID NO: 7)). Moreover, mis-siRNA at 4 nucleotides was prepared to examine non-specific effects of siRNA duplexes (mis-siRNA: 5′ […] GCAGACdTdT (SEQ ID NO: 8)). To visualize the efficiency of transfection, the inventors also prepared Texas red-conjugated missense siRNA (mis-siRNA-TR). […]

CD86 = test: Flow cytometry of surface CD86 on TT-loaded monocytes stimulated with CD26-coated beads; details: siRNA-transfected monocytes, stimulated with CD26 wt-coated beads
Protocol: Freshly purified monocytes were cultured in Macrophage-SFM media for 24 h to diminish the effect of serum, and were preincubated with TT at a concentration of 0.5 μg/ml for an additional 24 h. After being washed with PBS, 1.0×10^6 of TT-loaded monocytes were stimulated for indicated periods with […] particles of polystyrene latex beads (Molecular Probes) coated with rsCD26 wt or rsCD26 del 201-211 (1.0 μg/ml). Stimulated monocytes were subjected to confocal laser microscopy, immunoprecipitation assay, Western blotting analysis, or flow cytometry (FCM).
In experiments assessing the expression of CD86 on purified monocytes after preincubation with or without TT (0.5 μg/ml) for 24 hours, following incubation with rsCD26-coated beads for 24 h, FITC-conjugated CD86 mAb (10 μg/ml) were used with PE-conjugated anti-CD14 (10 μg/ml) and Cy Chrome-conjugated CD45 (10 μg/ml) to gate exclusively on the monocyte population. In experiments assessing the effect of siRNA against caveolin-1 in monocytes, purified monocytes were transfected with siRNA as described below, following incubation with rsCD26-coated beads for 24 h, and stained as described above.
(§1) Flow-cytometric analysis of 10,000 viable cells was conducted on Becton-Dickinson FACScalibur. Each experiment was repeated at least three times, and the results were provided in the form of a histogram of a representative experiment, or increased mean percent±standard error (SE) of mean-fluorescent intensity (MFI), compared to control or untreated cells.
To design target-specific siRNA duplexes, the present inventors selected sequences of the type AA(N19) (N, any nucleotide) from the open reading frame of human caveolin-1 (accession number=NM 001753) (Elbashir, et al., 2001). Moreover, the inventors added the sequences to the 2-nucleotide 3′ overhangs of 2′-deoxythymidine (dTdT), in order to generate a symmetric duplex with respect to the sequence composition of the sense and antisense 3′ overhangs. […]

[1] = tested on: caveolin-1 on cell surface of monocytes; test: Flow cytometric detection of cell surface caveolin-1 on monocytes; details: Filipin 1.0 μg/ml preincubation 30 min, then with or without TT
Protocol: For assessment of cell surface caveolin-1 exposure, after purified monocytes were treated with TT (0.5 μg/ml) for 0, 6, 12, 24, and 48 h, cells were washed with ice-cold PBS three times, and stained with anti-caveolin-1 antibody (5 μg/ml) for 60 min at 4° C., followed by staining with FITC conjugated anti-rabbit Ig antibody (1:200) for 60 min at 4° C. To disturb caveolae, purified monocytes were treated with Filipin (1.0 μg/ml, Sigma-Aldrich) for 30 min at 37° C. Cells were then subjected to TT loading and to staining caveolin-1 as described above.
as §1

[2] = tested on: conjugation of activated T cells and TT-loaded monocytes; test: T cell-APC conjugation assay; details: monocytes preincubated with Filipin 30 min, then with or without TT
Protocol: For T cell-APC conjugation assay as described elsewhere (Lee, et al., 2002), 1.0×10^5 of activated T cells were mixed with 1.0×10^5 of purified monocytes that had been pulsed with or without TT (0.5 μg/ml for indicated time periods), with further centrifugation. Thirty minutes later, cell mixtures were attached to microslide glass (Matsunami Glass Inc., Tokyo, Japan) coated with poly-L-lysine, and fixed with 4% paraformaldehyde in PBS for 15 min at room temperature. Cells were blocked with mouse and rabbit Ig isotypes (1 μg/ml) for 30 min at 4° C., followed by incubation with anti-CD26 mAb and anti-caveolin-1 rabbit pAb (each of 10 μg/ml) for 60 min at 4° C., then washed with ice-cold PBS twice and incubated with FITC conjugated anti-mouse Ig and Texas red conjugated anti-rabbit Ig antibodies (1:200) for 60 min at 4° C. Cells were mounted in coverslips with Antifade Prolong kit. Conjugates were first identified by direct observation under differential interference contrast and then confirmed by detecting the green fluorescence of anti-CD26 mAb in T cells and the red fluorescence of anti-caveolin-1 pAb in monocytes. The proportion of T cell-APC conjugation was calculated by random choice of 500 different cells in a coverslips from five independent experiments. […]

Row | Compound | caveolin-1 expression in monocytes (knock down) (caveolin-1) | effect on CD86 upregulation in TT-loaded monocytes (CD86) | caveolin-1 on cell surface of monocytes [1] | T cell-monocyte cell conjugation [2]
1 | 5′ AAGGAGA UCGACCUGGUCAAC dTdT [ss2] | effectively knocked down | inhibited |  | 
2 | 5′ UACAAGAAGGGCAUG GCAGACdTdT [mismatched siRNA] | not significantly knocked down | did not exhibit this inhibitory effect |  | 
3 | 5′AACAACAAGGCCAUGG CAGACdTdT [ss1] | effectively knocked down | inhibited |  | 
4 | CCCCC[C@@H](O)[C@H]1C(=O)O[C@H](C)[C@@H](O)/C=C/C=C/C=C/C=C/C=C(\C)[C@@H](O)C[C@H](O)C[C@H](O)C[C@H](O)C[C@H](O)C[C@H](O)C[C@@H]1O [Filipin] |  |  | not detected | not detected

Source: patent US7704686B2, “Methods of identifying immunoregulatory agents, immunoregulatory agents, and uses thereof” (Toudai TLO, Ltd., priority 2003, dated 2010)
